The text below walks through data of US7351719B2, “Amide compounds having MCH-antagonistic activity and medicaments comprising these compounds” (Boehringer Ingelheim Pharma GmbH & Co. KG, priority 2002, dated 2008).

As a reminder, the pIC50 is −log10 of the IC50, conventionally taken in molar units. A lower pIC50 goes with a large IC50.

pIC50: −log10 of the molar value.

The target in this test is T1, hMCH-1R (Homo sapiens, UniProt Q99705).
T1 construct: expressed in transfected cells; host or cells: CHO/Galpha16 cells (stably transfected); membranes used
The test can be described thus: MCH-1 receptor binding test (125I-MCH binding to hMCH-1R transfected cell membranes). As to conditions: hMCH-1R transfected CHO/Galpha16 cell membranes. The protocol: Membranes from CHO/Galpha 16 cells stably transfected with human hMCH-1R are resuspended using a syringe (needle 0.6×25 mm) and diluted in test buffer (50 mM HEPES, 10 mM MgCl2, 2 mM EGTA, pH 7.00; 0.1% bovine serum albumin (protease-free), 0.021% bacitracin,1 μg/mL aprotinin, 1 μg/mL leupeptin and 1 μM phosphoramidone) to a concentration of 5 to 15 μg/mL. […] After the incubation the reaction is filtered using a cell harvester through 0.5% PEI treated glass fibre filters (GF/B, Unifilter Packard). The membrane-bound radioactivity retained on the filter is then determined after the addition of scintillator substance (Packard Microscint 20) in a measuring device (TopCount of Packard).
The analysis of the concentration binding curve is carried out on the assumption of one receptor binding site.

T1 sequence (Q99705 whole entry): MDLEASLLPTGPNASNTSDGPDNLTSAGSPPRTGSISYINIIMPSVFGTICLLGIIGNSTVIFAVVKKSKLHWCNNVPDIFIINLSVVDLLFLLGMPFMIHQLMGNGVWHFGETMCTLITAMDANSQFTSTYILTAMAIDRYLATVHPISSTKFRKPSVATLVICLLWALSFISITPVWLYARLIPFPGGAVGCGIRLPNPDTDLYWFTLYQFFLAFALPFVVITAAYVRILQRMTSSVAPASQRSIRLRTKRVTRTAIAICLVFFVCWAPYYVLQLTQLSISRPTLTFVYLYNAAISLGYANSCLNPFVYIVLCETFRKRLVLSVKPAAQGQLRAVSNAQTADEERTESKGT

Molecule `CCN(CC)CCn1ccc2cc(NC(=O)COc3ccc(C(F)(F)F)cc3Cl)ccc21` [Example 12] gave a pIC50 of 7.39.
Next, `CCN(CC)CCOc1ccc(NC(=O)COc2ccc(C(C)(C)C)cc2Cl)cc1Cl` [Example 34]: 7.77.
